Test results as given in patent publication US10738053B2, “Bicyclic compounds as dual ATX/CA inhibitors” (Hoffmann-La Roche Inc., priority 2015, dated 2020).

Columns and labels:
[1] = molecular target: human ATX (Homo sapiens (Human), UniProt Q13822); test: Human ATX enzyme inhibition assay (fluorescence quenching, MR121 substrate); format: biochemical; conditions: human His-tagged ATX 30 nM, MR121 substrate 1 μM
Experimental: Production of Human Full Length ATX, with and without His Tag
Autotaxin (ATX-ENPP2) cloning: cDNA was prepared from commercial human hematopoietic cells total RNA and used as template in overlapping PCR to generate a full length human ENPP2 ORF with or without a 3′-6× His tag. These full length inserts were cloned into the pcDNA3.1V5-His TOPO (Invitrogen) vector. The DNA sequences of several single clones were verified. The DNA from a correct full length clone was used to transfect Hek293 cells for verification of protein expression. The sequence of the encoded ENPP2 conforms to Swissprot entry Q13822, with or without the additional C-terminal 6× His tag.
ATX Fermentation: Recombinant protein was produced by large-scale transient transfection in 20 L controlled stirred tank bioreactors (Sartorius). During cell growth and transfection, temperature, stirrer speed, pH and dissolved oxygen concentration were maintained at 37° C., 120 rpm, 7.1 and 30% DO, respectively. FreeStyle 293-F cells (Invitrogen) were cultivated in suspension in FreeStyle 293 medium (Invitrogen) and transfected at ca. 1-1.5×10E6 cells/mL with above plasmid DNAs using X-tremeGENE Ro-1539 (commercial product, Roche Diagnostics) as complexing agent. Cells were fed a concentrated nutrient solution (J Immunol Methods 194 (1996), 19, 1-199 (page 193)) and induced by sodium butyrate (2 mM) at 72 h post-transfection and harvested at 96 h post-transfection. Expression was analyzed by Western Blot, enzymatic assay and/or analytical IMAC chromatography. After cooling the cell suspension to 4° C. in a flow-through heat exchanger, cell separation and sterile filtration of supernatant was performed by filtration through Zeta Plus 60M02 E16 (Cuno) and Sartopore 2 XLG (Sartorius) filter units. The supernatant was stored at 4° C. prior to purification.
ATX Purification: 20 liter of culture supernatant were conditioned for ultrafiltration by adding Brij 35 to a final concentration of 0.02% and by adjusting the pH to 7.0 using 1 M HCl. Then the supernatant was first microfiltred through a 0.2 µm Ultran-Pilot Open Channel PES filter (Whatman) and afterwards concentrated to 1 liter through an Ultran-Pilot Screen Channel PES filter with 30 kDa MWCO (Whatman). Prior to IMAC chromatography, NiSO4 was added to a final concentration of 1 mM. […] The column was washed stepwise with the same buffer containing 20 mM, 40 mM and 50 mM imidazole, respectively. The protein was subsequently eluted using a linear gradient to 0.5 M imidazole in 15 column volumes. ATX containing fractions were pooled and concentrated using an Amicon cell equipped with a 30 kDa PES filter membrane. […] Final yield of protein after purification was 5-10 mg ATX per liter of culture supernatant. The protein was stored at −80° C.
Human ATX Enzyme Inhibition Assay
Test compounds (10 mM stock in DMSO, 8 μL) were obtained in 384 well sample plates (Corning Costar #3655) and diluted with 8 μL DMSO. […] Then, 15 μL of 41.7 nM ATX solution was added (30 nM final concentration), mixed five times and then incubated for 15 minutes at 30° C. 10 μL of MR121 substrate solution was added (1 μM final concentration), mixed 30 times and then incubated for 15 minutes at 30° C.

[2] = molecular target: Human carbonic anhydrase II (hCA-II) (Homo sapiens (Human), UniProt P00918); test: Human carbonic anhydrase-II inhibition assay (absorbance, 4-NPA substrate); format: biochemical; conditions: hCA II 8 nM, 4-NPA 2.5 mM, absorbance 340 nm; read-out: CA-II IC50
Experimental: Human Carbonic Anhydrase-II Inhibition Assay
Then 30 μL of 16 nM hCA II solution was added (8 nM final concentration), mixed five times. 30 μL of 4-NPA substrate solution was added (2.5 mM final concentration), mixed five times.

Compound	IC50 [1]	IC50 [2]
CO[C@@]12CN(C(=O)OCc3ncc(C(F)(F)F)cc3NC(=O)C(C)(C)C)C[C@H]1CN(C(=O)c1ccc(S(N)(=O)=O)cc1)C2 (single isomer, unassigned) [Example 4.03, (−) trans-5-(4-sulfamoyl-benzoyl)-3a-methoxy-hexahydro-pyrrolo[3,4-c]pyrrole-2-carboxylic acid 3-(2,2-dimethyl-propionylamino)-5-trifluoromethyl-pyridin-2-ylmethyl ester]	11 nM	13 nM
C[C@@]12CN(C(=O)OCc3ccc(OC(F)(F)F)cc3)C[C@H]1CN(C(=O)c1ccc(S(N)(=O)=O)cc1)C2 [Example 4.00, (+)-(3aR,6aR)-3a-Methyl-5-(4-sulfamoyl-benzoyl)-hexahydro-pyrrolo[3,4-c]pyrrole-2-carboxylic acid 4-trifluoromethoxy-benzyl ester]	6 nM	95 nM

Other lines, results leading:

IC50 [1]	IC50 [2]	Compound
6 nM	27 nM	CO[C@@]12CN(C(=O)OCc3ccc(OC(F)(F)F)cc3)C[C@H]1CN(C(=O)c1ccc(S(N)(=O)=O)cc1)C2 (single isomer, unassigned) [Example 5.01, (+)-trans-5-(4-sulfamoyl-benzoyl)-3a-methoxy-hexahydro-pyrrolo[3,4-c]pyrrole-2-carboxylic acid 4-trifluoromethoxy-benzyl ester]
4 nM	15 nM	NS(=O)(=O)c1ccc(C(=O)N2C[C@@H]3CN(C(=O)OCc4ccc(OC(F)(F)F)cc4)C[C@@]3(F)C2)cc1 (single isomer, unassigned) [Example 5.02, (+)-trans-5-(4-sulfamoyl-benzoyl)-3a-fluoro-hexahydro-pyrrolo[3,4-c]pyrrole-2-carboxylic acid 4-trifluoromethoxy-benzyl ester]
13 nM	20 nM	CO[C@@]12CN(C(=O)OCc3ncc(C(F)(F)F)cc3NC(=O)C(C)(C)C)C[C@H]1CN(C(=O)c1ccc(S(N)(=O)=O)cc1)C2 (single isomer, unassigned) [Example 5.03, (+)-trans-5-(4-sulfamoyl-benzoyl)-3a-methoxy-hexahydro-pyrrolo[3,4-c]pyrrole-2-carboxylic acid 3-(2,2-dimethyl-propionylamino)-5-trifluoromethyl-pyridin-2-ylmethyl ester]
7 nM	38 nM	C[C@]12CN(C(=O)OCc3ccc(OC(F)(F)F)cc3)C[C@@H]1CN(C(=O)c1ccc(S(N)(=O)=O)cc1)C2 [Example 5.00, (−)-(3aS,6aS)-3a-methyl-5-(4-sulfamoylbenzoyl)-hexahydro-pyrrolo[3,4-c]pyrrole-2-carboxylic acid 4-trifluoromethoxy-benzyl ester]
